These results are taken from patent US9051306B2, “Indirubin derivative having highly selective cytotoxicity for malignant tumors” (NIHON UNIVERSITY, priority 2011, dated 2015).

“Also recorded” adds a separate entry of the source. Like-named read-outs stand apart in the source and are kept apart here.

One series concerns IMR-32 cells. Description: Ability to induce apoptosis, Hoechst 33342 staining method. The series is classed as cell-based, human. The method, then:
The ability to induce apoptosis was examined using nuclear staining by the Hoechst 33342 staining method.
Two mL of a suspension of cells (IMR-32) in an RPMI 1640 medium was seeded into a 6-well plate (1×10^5 cells/well) and cultured for 24 hours (under 5% CO2, 37° C., and saturated humidity conditions). Subsequently, the test compound (final concentration of from 1×10^−5 M to 1×10^−7 M) and DMSO as a control were each added in an amount of 4 μL and allowed to act on the cells for 24 hours. Subsequently, 100 μL of a 0.02% Hoechst 33342 solution was added. After 15 minutes, phase-contrast images and fluorescence images of the cells were taken with a fluorescence microscope to observe changes in cell morphology.

The test system of series [1] is normal human dermal fibroblasts (NHDF). Description: Cytotoxicity, MTT method, NHDF non-tumor cells. The series is classed as cell-based. The procedure:
(§1) Antitumor activity was determined by the MTT (3-(4,5-dimethylthiazol-2-yl)-2,5-diphenyltetrazolium bromide) method.
(§2) One hundred μL of a suspension of tumor cells in an RPMI 1640 medium was seeded into a 96-well plate (1×10^4 cells/well) and cultured for 24 hours (5% CO2, 37° C., saturated humidity conditions). Subsequently, the test compound (final concentration of from 1×10^−5 to 1×10^−8 M) and DMSO as a control were each added in an amount of 0.2 μL and allowed to act on the tumor cells for 48 hours. Subsequently, 10 μL of a 0.5% MTT solution was added. After 3 hours, 100 μL of a reaction terminating solution (0.04 N HCl/isopropanol) was added to terminate the reaction. After thorough pipetting, the absorbance was measured at 570 nm (top) and 655 nm (bottom) using a microplate reader. The cell survival rate for each sample at each concentration was calculated as a percentage to the control group, and IC50 values were determined from the data. The tumor cells used were human neuroblastoma cells IMR-32, SK-N-SH, LA-N-1, and NB-39 and human liver cancer cells HepG-2. Non-tumor cells: normal human dermal fibroblasts (NHDF) and human umbilical vein endothelial cells (HUVEC) were also used.
In general terms: Formazan colour is commonly taken as a measure of viable cells.

The subject of series [2] is human neuroblastoma cells LA-N-1. Description: Antitumor activity, MTT method, LA-N-1. The series is classed as cell-based. The procedure: as §1, §2
In series [3] the test system is human neuroblastoma cells SK-N-SH. Description: Antitumor activity, MTT method, SK-N-SH. The series is classed as cell-based. The method, then:
as §1, §2

The subject of series [4] is human liver cancer cell line HepG2. Description: Antitumor activity (2), Alamar Blue cell survival. Conditions: 24 hours, read-out: cytotoxic activity (IC50: 50% inhibitory concentration). The class given is cell-based. The procedure:
Fetal bovine serum (FBS) was added at a final concentration of 10% to dulbecco's modified eagle's medium (DMEM, Sigma-Aldrich), and a penicillin-streptomycin solution (GIBCO) was further added at a concentration of 0.1 mg/mL.
An Alamar Blue solution manufactured by Wako Pure Chemical Industries, Ltd. was used.
One hundred μL aliquot of a suspension of human liver cancer cell line HepG2 cells in DMEM medium (1.0×10^5 cells/mL) was dispensed into a 96-well culture plate. The cells were allowed to adhere to the plate by being cultured at 37° C. in 5% CO2 under saturated humidity conditions. After culture for 24 hours, the medium was removed by suction, and 100 μL of a test compound-containing medium (containing 1% DMSO) was added. The cells were cultured at 37° C. in 5% CO2 under saturated humidity conditions. After culture for 24 hours, the medium was removed by suction, and the cells were washed with phosphate buffered saline (PBS). The Alamar Blue reagent solution (100 μL) diluted 10 times with the medium was added to each well, and the cells were cultured under the same conditions. After 1 hour, the fluorescence intensity was measured at an excitation wavelength of 577 nm and a detection wavelength of 612 nm. When the cell survival rate was calculated, the value for the well added with the vehicle (containing 1% DMSO) was normalized as 100%.
For orientation: The colour change of resazurin is a common sign of viable cells or microbes.

For series [5], the system named is human umbilical vein endothelial cells (HUVEC). Description: Cytotoxicity, MTT method, HUVEC non-tumor cells. The class given is cell-based. The method, then:
as §1, §2

In series [6] the test system is human neuroblastoma cells IMR-32. Description: Antitumor activity, MTT method, IMR-32. The class given is cell-based. The procedure:
as §1, §2

The subject of a further series is tumor cells. Description: Antitumor activity, MTT method, overall statement on tumor cells. The class given is cell-based, human. Conditions: from FIG. 1 and Table 1. The procedure:
as §1, §2

In series [7] the test system is human neuroblastoma IMR-32 cells. Description: Ability to induce apoptosis, flow cytometry (Annexin V-FITC/PI). The series is classed as cell-based. To be noted: 24 hours. The procedure:
Flow cytometry was used to detect whether the compound (HS-2) of the present invention had the ability to induce apoptosis of human neuroblastoma IMR-32 cells. Specifically, 2 mL of a suspension of cells (IMR-32) in an RPMI 1640 medium was seeded into a 6-well plate (1×10^6 cells/well) and cultured for 24 hours (under 5% CO2, 37° C., and saturated humidity conditions). Subsequently, the compound (HS-2) was added at a final concentration of from 1×10^−5 M to 1×10^−7 M and incubated under 37° C. and 5% CO2 conditions for 24 hours. The cells were detached with trypsin and washed with PBS. Annexin V-FITC and propidium iodide (PI) were then added to the cells to carry out flow cytometry. In this technique, only Annexin V-FITC fluorescence is observed from cells in the early apoptosis phase, and both Annexin V fluorescence and PI fluorescence are observed from cells in the late apoptosis phase.
A general note: In flow cytometry, cells or beads pass a laser one at a time.

The test system of series [8] is human neuroblastoma cells NB-39. Description: Antitumor activity, MTT method, NB-39. The series is classed as cell-based. The method, then:
as §1, §2

The test system of series [9] is human liver cancer cells HepG-2. Description: Antitumor activity, MTT method, HepG-2. The series is classed as cell-based. The procedure:
as §1, §2

For the compound `O=C1Nc2ccccc2/C1=C1/Nc2ccccc2/C1=N\OCC1CO1` (stereo not drawn) [HS-2, indirubin-3′-(O-oxiran-2-ylmethyl)oxime], in the series with IMR-32 cells (FIG. 2 legend), the “apoptosis of IMR-32 neuroblastoma cells” value was “induced apoptosis”. Further, in the series on IMR-32 cells (IMR-32, 0.1 μM, 24 hours, FIG. 2), the “nuclear morphology (Hoechst 33342 staining)” value was “induced nuclear aggregation and fragmentation”. For the same compound, the IC50 in series [1] (Homo sapiens, NHDF, 48 h) stood at 61.4 µM; in series [2] (Homo sapiens, LAN1, 48 h) it was 0.139 µM; in series [3] (Homo sapiens, 48 h) it was 0.325 µM; in [4] (Homo sapiens), 1 µM; in series [5] (Homo sapiens, HUVEC, 48 h), 1.75 µM; in series [6] (Homo sapiens, IMR-32, 48 h), 0.329 µM. Moreover, the IC50 in series [8] (Homo sapiens, NB39, 48 h) amounted to 0.55 µM; in series [9] (Homo sapiens, HepG2), 1 µM. In the series on tumor cells, the “antitumor activity relative to cisplatin (CDDP)” value was 50 to 100 times. In addition, the apoptosis-inducing effect result in [7] (IMR-32, 10 μM) is “significant apoptosis-inducing effect”. Moreover, in [7] (IMR-32, 1×10^−5 M to 1×10^−7 M, FIG. 3), the “ability to induce apoptosis” value is given as “induced apoptosis; also recorded: concentration-dependent ability to induce apoptosis”.

Regarding `[NH2][Pt]([NH2])([Cl])[Cl]` [CDDP, cisplatin, reference compound], the IC50 in series [1] (NHDF normal cells, MTT, 48 hours, read-out: IC50) is more than 100 µM; in [2] (LA-N-1, MTT, 48 hours, read-out: IC50) it was 1.63 µM; in [3] (MTT, 48 hours, read-out: IC50), 12.1 µM; in series [4] it was 10 µM; in series [5] (HUVEC normal cells, MTT, 48 hours, read-out: IC50), 69.8 µM; in series [6] (IMR-32, MTT, 48 hours, read-out: IC50), 28.2 µM. The IC50 in series [8] (NB-39, MTT, 48 hours, read-out: IC50) was 2.04 µM; in series [9] (HepG-2, Table 1, read-out: IC50) it was 10 µM.
